Patent US10377753B2, “Substituted 4-azaindoles and their use as GluN2B receptor modulators” (Janssen Pharmaceutica NV, priority 2015, dated 2019)
Where a name gives a salt, the structure may show the parent alone.

Molecular target: cloned human NR1/NR2B ion channels (Homo sapiens (Human), UniProt Q05586+Q13224)
Assay: HNR2BC: effects of test articles on cloned human NR1/NR2B ion channels expressed in mammalian cells (FLIPR calcium flux)
Type: cell-based
Details: cloned human NR1/NR2B, Table 5
Outline: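 In a stable Tet-On-induced cell line expressing human GluN1/GluN2B, Calcium 5-loaded cells were preincubated 5 min with compound, then stimulated 5 min with glutamate at ~EC80 plus 10 μM glycine, in pH 7.4 HEPES buffer. FLIPR calcium fluorescence was normalized to control wells.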

Chain of cloned human NR1/NR2B ion channels (Q13224 27-1484, other chains not shown): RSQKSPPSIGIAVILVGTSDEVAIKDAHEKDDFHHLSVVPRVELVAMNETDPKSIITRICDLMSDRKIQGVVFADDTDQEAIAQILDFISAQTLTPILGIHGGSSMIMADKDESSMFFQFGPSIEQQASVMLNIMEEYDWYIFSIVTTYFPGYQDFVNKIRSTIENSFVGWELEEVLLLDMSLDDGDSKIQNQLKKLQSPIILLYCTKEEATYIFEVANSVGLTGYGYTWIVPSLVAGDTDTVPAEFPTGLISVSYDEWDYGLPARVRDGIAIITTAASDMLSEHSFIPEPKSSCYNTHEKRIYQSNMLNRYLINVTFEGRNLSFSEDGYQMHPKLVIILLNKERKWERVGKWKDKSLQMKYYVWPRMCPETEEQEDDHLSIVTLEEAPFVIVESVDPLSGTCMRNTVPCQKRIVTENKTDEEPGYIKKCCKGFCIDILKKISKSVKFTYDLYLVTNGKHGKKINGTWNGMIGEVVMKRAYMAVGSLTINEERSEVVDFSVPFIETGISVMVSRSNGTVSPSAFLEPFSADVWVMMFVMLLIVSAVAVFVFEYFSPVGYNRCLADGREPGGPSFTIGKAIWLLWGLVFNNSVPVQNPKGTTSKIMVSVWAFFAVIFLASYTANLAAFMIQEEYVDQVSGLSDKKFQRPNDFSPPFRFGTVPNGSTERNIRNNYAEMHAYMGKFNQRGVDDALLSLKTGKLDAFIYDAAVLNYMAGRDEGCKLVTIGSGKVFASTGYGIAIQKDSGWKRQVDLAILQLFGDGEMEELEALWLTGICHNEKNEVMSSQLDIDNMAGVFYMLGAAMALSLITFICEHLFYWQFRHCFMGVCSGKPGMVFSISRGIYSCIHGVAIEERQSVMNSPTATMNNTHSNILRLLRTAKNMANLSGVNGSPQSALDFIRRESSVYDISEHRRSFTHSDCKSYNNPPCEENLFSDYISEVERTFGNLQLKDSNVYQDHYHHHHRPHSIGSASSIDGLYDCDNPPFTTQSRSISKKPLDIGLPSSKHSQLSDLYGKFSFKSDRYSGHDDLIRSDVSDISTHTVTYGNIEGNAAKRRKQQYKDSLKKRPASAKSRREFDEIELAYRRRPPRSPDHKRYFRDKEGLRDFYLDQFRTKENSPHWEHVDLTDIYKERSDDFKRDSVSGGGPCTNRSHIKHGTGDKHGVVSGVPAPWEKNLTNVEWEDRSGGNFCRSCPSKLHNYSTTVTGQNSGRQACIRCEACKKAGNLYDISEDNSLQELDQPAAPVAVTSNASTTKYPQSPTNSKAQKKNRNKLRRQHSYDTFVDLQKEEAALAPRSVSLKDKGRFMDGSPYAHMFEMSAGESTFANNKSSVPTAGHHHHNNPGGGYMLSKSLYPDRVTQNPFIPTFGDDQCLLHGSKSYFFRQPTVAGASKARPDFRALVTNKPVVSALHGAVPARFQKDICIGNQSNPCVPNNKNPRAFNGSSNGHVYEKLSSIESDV

Structure (SMILES) | IC50
O=C(Cn1cc(Cl)c2ncc(-c3cccc(C(F)(F)F)n3)cc21)NC1CC1 [Example 246, 2-[3-Chloro-6-[6-(trifluoromethyl)-2-pyridyl]pyrrolo[3,2-b]pyridin-1-yl]-N-cyclopropyl-acetamide] | 100 nM
O=C(Cn1cc(Cl)c2ncc(-c3cccc(C(F)(F)F)n3)cc21)N1CC(F)C1 [Example 247, 2-[3-Chloro-6-[6-(trifluoromethyl)-2-pyridyl]pyrrolo[3,2-b]pyridin-1-yl]-1-(3-fluoroazetidin-1-yl)ethanone] | 316 nM
O=C(Cn1ccc2ncc(-c3cc(F)c(F)c(F)c3)cc21)NC1CC1 [Example 248, N-Cyclopropyl-2-[6-(3,4,5-trifluorophenyl)pyrrolo[3,2-b]pyridin-1-yl]acetamide] | 63.1 nM
O=C(Cn1ccc2ncc(-c3ccc(F)c(F)c3F)cc21)NC1CC1 [Example 249, N-Cyclopropyl-2-[6-(2,3,4-trifluorophenyl)pyrrolo[3,2-b]pyridin-1-yl]acetamide] | 79.4 nM
O=C(Cn1ccc2ncc(-c3cccc(C(F)F)c3)cc21)NC1CC1 [Example 250, N-Cyclopropyl-2-[6-[3-(difluoromethyl)phenyl]pyrrolo[3,2-b]pyridin-1-yl]acetamide] | 251 nM
O=C(Cn1ccc2ncc(-c3ccc(F)cc3)cc21)NCc1ccccc1 [Example 251, N-Benzyl-2-[6-(4-fluorophenyl)pyrrolo[3,2-b]pyridin-1-yl]acetamide] | 50.1 nM
O=C(Cn1ccc2ncc(-c3ccc(F)cc3)cc21)NCCO [Example 253, 2-[6-(4-Fluorophenyl)pyrrolo[3,2-b]pyridin-1-yl]-N-(2-hydroxyethyl)acetamide] | 79.4 nM
COCCNC(=O)Cn1ccc2ncc(-c3ccc(F)cc3)cc21 [Example 254, 2-[6-(4-Fluorophenyl)pyrrolo[3,2-b]pyridin-1-yl]-N-(2-methoxyethyl)acetamide] | 1260 nM
O=C(Cn1ccc2ncc(-c3cccc(C(F)(F)F)c3F)cc21)N1CC(F)(F)C1 [Example 255, 1-(3,3-Difluoroazetidin-1-yl)-2-[6-[2-fluoro-3-(trifluoromethyl)phenyl]pyrrolo[3,2-b]pyridin-1-yl]ethanone trifluoroacetate salt] | 3980 nM
O=C(Cn1ccc2ncc(-c3cccc(F)c3)cc21)N1CC(F)(F)C1 [Example 256, 1-(3,3-Difluoroazetidin-1-yl)-2-[6-(3-fluorophenyl)pyrrolo[3,2-b]pyridin-1-yl]ethanone trifluoroacetate salt] | 79.4 nM
O=C(Cn1ccc2ncc(-c3ccccc3)cc21)N1CC(F)(F)C1 [Example 257, 1-(3,3-Difluoroazetidin-1-yl)-2-(6-phenylpyrrolo[3,2-b]pyridin-1-yl)ethanone trifluoroacetate salt] | 126 nM
CCc1cccc(-c2cnc3ccn(CC(=O)N4CC(F)(F)C4)c3c2)c1 [Example 258, 1-(3,3-Difluoroazetidin-1-yl)-2-[6-(3-ethylphenyl)pyrrolo[3,2-b]pyridin-1-yl]ethanone trifluoroacetate salt] | 200 nM
Cc1cc(-c2cnc3ccn(CC(=O)N4CC(F)(F)C4)c3c2)ccc1F [Example 259, 1-(3,3-Difluoroazetidin-1-yl)-2-[6-(4-fluoro-3-methyl-phenyl)pyrrolo[3,2-b]pyridin-1-yl]ethanone trifluoroacetate salt] | 31.6 nM
O=C(Cn1ccc2ncc(-c3cccc(C(F)(F)F)c3)cc21)N1CC(F)(F)C1 [Example 260, 1-(3,3-Difluoroazetidin-1-yl)-2-[6-[3-(trifluoromethyl)phenyl]pyrrolo[3,2-b]pyridin-1-yl]ethanone trifluoroacetate salt] | 39.8 nM
Cc1cc(F)ccc1-c1cnc2ccn(CC(=O)N3CC(F)(F)C3)c2c1 [Example 261, 1-(3,3-Difluoroazetidin-1-yl)-2-[6-(4-fluoro-2-methyl-phenyl)pyrrolo[3,2-b]pyridin-1-yl]ethanone trifluoroacetate salt] | 50.1 nM

Results, then the molecule that gave them:

IC50 | Structure (SMILES)
100 nM | O=C(Cn1ccc2ncc(-c3ccc(F)c(C(F)(F)F)c3)cc21)N1CC(F)C1 [Example 262, 1-(3-Fluoroazetidin-1-yl)-2-[6-[4-fluoro-3-(trifluoromethyl)phenyl]pyrrolo[3,2-b]pyridin-1-yl]ethanone trifluoroacetate salt]
158 nM | O=C(Cn1ccc2ncc(-c3cccc(F)c3)cc21)N1CC(F)C1 [Example 263, 1-(3-Fluoroazetidin-1-yl)-2-[6-(3-fluorophenyl)pyrrolo[3,2-b]pyridin-1-yl]ethanone trifluoroacetate salt]
63.1 nM | Cc1cc(F)ccc1-c1cnc2ccn(CC(=O)N3CC(F)C3)c2c1 [Example 264, 1-(3-Fluoroazetidin-1-yl)-2-[6-(4-fluoro-2-methyl-phenyl)pyrrolo[3,2-b]pyridin-1-yl]ethanone trifluoroacetate salt]
100 nM | O=C(Cn1ccc2ncc(-c3cccc(C(F)(F)F)c3)cc21)N1CC(F)C1 [Example 265, 1-(3-Fluoroazetidin-1-yl)-2-[6-[3-(trifluoromethyl)phenyl]pyrrolo[3,2-b]pyridin-1-yl]ethanone trifluoroacetate salt]
126 nM | Cc1cccc(-c2cnc3ccn(CC(=O)N4CC(F)C4)c3c2)c1 [Example 266, 1-(3-Fluoroazetidin-1-yl)-2-[6-(m-tolyl)pyrrolo[3,2-b]pyridin-1-yl]ethanone trifluoroacetate salt]
39.8 nM | O=C(Cn1ccc2ncc(-c3cccc(C(F)(F)F)c3F)cc21)N1CC(F)C1 [Example 267, 1-(3-Fluoroazetidin-1-yl)-2-[6-[2-fluoro-3-(trifluoromethyl)phenyl]pyrrolo[3,2-b]pyridin-1-yl]ethanone trifluoroacetate salt]
79.4 nM | CCc1cccc(-c2cnc3ccn(CC(=O)N4CC(F)C4)c3c2)c1 [Example 268, 2-[6-(3-Ethylphenyl)pyrrolo[3,2-b]pyridin-1-yl]-1-(3-fluoroazetidin-1-yl)ethanone trifluoroacetate salt]
63.1 nM | Cc1cccc(-c2cnc3ccn(CC(=O)N4CC(F)(F)C4)c3c2)c1 [Example 269, 1-(3,3-Difluoroazetidin-1-yl)-2-[6-(m-tolyl)pyrrolo[3,2-b]pyridin-1-yl]ethanone]
39.8 nM | O=C(Cn1ccc2ncc(-c3ccccc3)cc21)N1CC(F)C1 [Example 270, 1-(3-Fluoroazetidin-1-yl)-2-(6-phenylpyrrolo[3,2-b]pyridin-1-yl)ethanone]
79.4 nM | Cc1c(F)ccc(-c2cnc3c(F)cn(CC(=O)N4CC(F)(F)C4)c3c2)c1F [Example 271, 1-(3,3-Difluoroazetidin-1-yl)-2-[6-(2,4-difluoro-3-methyl-phenyl)-3-fluoro-pyrrolo[3,2-b]pyridin-1-yl]ethanone]
1000 nM | Cc1cc(-c2cnc3ccn(CC(=O)N4CC(O)C4)c3c2)ccc1F [Example 273, 2-[6-(4-Fluoro-3-methyl-phenyl)pyrrolo[3,2-b]pyridin-1-yl]-1-(3-hydroxyazetidine-1-yl)ethanone]
501 nM | CO/N=C(/Cn1ccc2ncc(-c3ccc(F)c(C)c3)cc21)C1CC1 [Example 276, 1-Cyclopropyl-2-[6-(4-fluoro-3-methyl-phenyl)pyrrolo[3,2-b]pyridin-1-yl]-N-methoxy-ethanimine]
3160 nM | O=C(Cn1ccc2ncc(-c3cccs3)cc21)N1CC(F)C1 [Example 277, 1-(3-Fluoroazetidin-1-yl)-2-[6-(2-thienyl)pyrrolo[3,2-b]pyridin-1-yl]ethanone]
